Reference: US7491501B2, “Methods for identifying modulators of intracellular aggregate formation” (Auburn University, priority 2003, dated 2009)
Where a SMILES comes first, the peptide text is derived from it. [ ]: non-standard residue; d: D form. The star is where a group is joined. Nle = CCCC[C@H](N)C(=O)O; Cbz = O=C(OCc1ccccc1)*

Tests used:
[1] = test system: internalization of NGF by PC12 cells; assay: Internalization of NGF, 125I-NGF binding assay in PC12 cells (FIG. 15D); format: cell-based; settings: PC12 cells pretreated with peptide (150 μM); control not shown
Method: Additionally, PC12 cells were pretreated or not with TRAF6 peptide (150 μM) followed by measurement of internalized receptor employing 125I-NGF binding assay (FIG. 15D). […] Similarly, the level of internalized NGF was measured in PC12 cells transfected with wild-type ubiquitin, K48R or K63R ubiquitin mutants (FIG. 15E). Transfection of ubiquitin, or K48R mutant was without any effect on internalization of NGF. By comparison, transfection of K63R ubiquitin mutant totally abrogated internalization of the ligand. […] Thus, p62 serves as an adaptor, as well as, a scaffold for TRAF6-directed ubiquitination and K63 chains play a signaling role for internalization and sorting of the receptor.

TrkA = assay: NGF-dependent TrkA ubiquitination and TrkA complex formation in PC12 cells (FIG. 15B, 15C); format: cell-based; settings: NGF treated, TrkA immunoprecipitation
Method: (§1) The peptide containing the TRAF6-binding motif in p62 along with the hydrophobic sequence containing the cell-permeable motif from Kaposi fibroblast growth factor signal sequence […]-[…] (SEQ ID NO. 4) and control peptide […]-[…] (SEQ ID NO. 5) was synthesized. As a preliminary step, PC12 cells were pretreated with different concentrations (75-300 μM) of TRAF6 peptide for 5 hours followed by NGF stimulation for 15 min and immunoprecipitation of TRAF6 followed by Western blotting for p62. […] To address whether TRAF6 peptide affects the interaction of p62 and UbcH7 with TRAF6, PC12 cells were treated with or without 150 μM of control peptide or TRAF6 peptide for 5 hours and then stimulated with NGF for 15 min. By immunoprecipitating TRAF6, TRAF6 peptide (150 μM) abrogated the interaction of p62 with TRAF6, but not UbcH7, upon NGF treatment (FIG. 8A). […] The ability of the TRAF6 peptide to impair the ubiquitination process was investigated. Lysates recovered from NGF treated cells were immunoprecipitated with TrkA receptor antibody and blotted for ubiquitin or the receptor (FIG. 15B). […] The ability of the peptide to interrupt the formation of the functional TrkA-p62-TRAF6-UbcH7 complex on NGF stimulation as well was also investigated. TrkA was immunoprecipitated and blotted for the presence of each protein in the complex (FIG. 15C).

tau polyubiquitination = assay: NGF-induced tau polyubiquitination in PC12 cells (FIG. 13A); format: cell-based; settings: control not shown
Method: (§2) The region spanning amino acids 225-251 is necessary for the interaction of p62 with TRAF6. The peptide containing TRAF6 binding motif in p62 along with the hydrophobic sequence containing the cell-permeable motif from Kaposi fibroblast growth factor sequence, […]-[…] (SEQ ID NO. 4) and control peptide […]-[…] (SEQ ID NO. 5) was synthesized. As a preliminary step, PC12 cells were pretreated with various concentrations of peptide for 5 h, followed by NGF stimulation for 15 min and immunoprecipitation with TRAF6 and western blotted with p62. […] The peptide was then tested for its ability to block NGF-induced tau polyubiquitination (FIG. 13A).

[2] = target: T1, interaction of p62 with TRAF6 (Rattus norvegicus, UniProt B5DF45); assay: TRAF6 immunoprecipitation and Western blot for p62/UbcH7 in NGF-stimulated PC12 cells; format: cell-based; settings: 150 μM peptide 5 hours, NGF 15 min
T1 construct: followed by NGF stimulation for 15 min and immunoprecipitation of TRAF6 followed by Western blotting for p62; endogenous in cells; host or cells: PC12
Method: Immunoprecipitation and Western blotting—Each mg of lysate/inclusion bodies was incubated with 41 ng of primary antibody at 4° C. for 3 h and then with 50 μl of 50% agarose-coupled secondary antibody for 2 more hours at 4 C. The beads were washed three times with lysis buffer, eluted by adding SDS-PAGE sample buffer, and subjected to SDS-PAGE in 7.5-12% acrylamide gels. Immunoblotting was performed on nitrocellulose membranes and analyzed by western blotting with ECL detection reagents (Amersham Biosciences).
as §2, §1

[3] = test system: p62 aggregates in HEK cells; assay: p62 aggregate formation by confocal/fluorescence microscopy in transfected HEK cells; format: cell-based, Human; settings: for formation of the p62 aggregates (microtubule dependence): data not shown; for large p62 aggregates upon inhibition of proteasomal degradation: MG132 data not shown; for size of aggregates of cotransfected p62, ubiquitin, TRAF6, tau, UbcH7: cotransfected cells (FIG. 9C), MG132 not shown
Method: Immunofluorescence staining—All steps were done at room temperature unless stated otherwise. The inclusion bodies were placed on poly-L-lysine coated 12 well slides (Cel-line/Erie Scientific Co., Portmouth, N.H.) and let partially dry. Inclusion bodies on the slides were fixed for 10 min in 3% paraformaldehyde (Electron Microscopy Sciences, Fort Washington, Pa.) and permeabilized with 0.1% Triton X-100 in PBS for 15 minutes. The inclusion bodies were incubated in blocking buffer (3% non fat dry milk in PBS) for 1 h, prior to incubation with primary antibodies at 4° C. overnight. After washing with PBS, the secondary antibody (Molecular Probes Inc., Eugene, Oreg.) in blocking buffer was applied for 1 h. After extensive washing in PBS, the samples were mounted using Vectashield (Vector Laboratories Inc., Burlingame, Calif.). The cells were fixed with 3% paraformaldehyde and processed similar to that of inclusion staining.
Cells were incubated with rabbit anti-myc IgG or mouse anti-HA IgG and labeled with Texas Red-conjugated anti-rabbit antibodies (red) or Oregon Green-conjugated anti-mouse antibodies (green), respectively. Merged images with overlapping immunoreactivity are shown in yellow. Note that cells expressing p62 lacking its UBA domain (p62ΔUBA) fail to form aggregates or to colocalize with ubiquitin. All experiments were replicated three independent times with similar results. Small aggregates of p62 colocalized with ubiquitin which was dependant upon the presence of a UBA domain but not the N-terminal portion of p62. Aggregation may impair the proteasome or, alternatively, impaired proteasome activity may seed aggregates. Alternatively, impairment of the proteasome may enhance the formation of p62 aggregates containing polyubiquitin.
In summary, through its UBA domain, p62 Interacts with polyubiquitinated substrates, and the UBA domain is necessary for aggregate formation.
Since TRAF6 localized to the large aggregates along with polyubiquitin (FIG. 2B), these aggregates may represent the failed attempt of the cell to rid itself of TRAF6-K63-polyubiquitinated substrates sequestered through interaction with the UBA domain. […] Altogether, these findings reveal that p62 binds proteins with K63 chains through its UBA domain and that p62 aggregates sequester TRAF6 as well as K63-polyubiquitinated substrates.
To further determine if the coassociation of tau-p62-TRAF6 and UbcH7 could be recapitulated in vitro, a cotransfection approach was undertaken. […] HEK cells were transfected with GFP-p62 followed by treatment or not with Aβ1-42 and Aβ42-1 peptides. […] This is consistent with the observation that microtubule dependent transport is important for the formation of p62 inclusions as assessed by treatment of the cells with nocodazole, a microtubule disrupting agent (9).

ubiquitinated tau = assay: Accumulation of ubiquitinated tau in tau-transfected HEK cells treated with degradation inhibitors; format: cell-based, Human; settings: 50 μM ALLN, 5 μM MG132 or 0.15 mM chloroquine, 24 h
Excerpt: Depletion of p62 levels by transfection of antisense (AS) p62 retarded the turnover of p62 (FIG. 12A). […] Collectively these findings reveal that tau turnover is regulated by both the expression of p62 and the presence of K63 polyubiquitin chains carried by tau. The best known function of protein ubiquitination is to target proteins for degradation by the 26S proteasome. However, K63 chains have been hypothesized to play a role aside of targeting proteins to the proteasome. To test whether K63 chains are able to signal proteasomal degradation, tau was first ubiquitinylated in an in vitro reaction with K63 ubiquitin. The protein complex containing polyubiquitinated tau on beads was then incubated with 26S proteasome supplemented with MgCl2 and ATP. The polyubiquitinated chains disappeared after incubation with purified 26S proteasome (FIG. 12B). To determine whether the observed disappearance of polyubiquitinated products is due to degradation or to the deubiquitinating activity in the 26S proteasome fraction, a deubiquitination inhibitor, Ub-H was added to the reaction. […] To test if ubiquitinated tau was targeted to the proteasome, HEK cells cotransfected with His-tau were treated with ALLN, MG132 or chloroquine. Both ALLN and MG132 block proteasome degradation, whereas chloroquine blocks degradation through the lysosome. It was observed that ubiquitinated tau accumulates in the presence of proteasome inhibitors, but not chloroquine, thus confirming that polyubiquitinated tau is degraded by the proteasome (FIG. 12C).

GFP-p62-expressing cells = assay: Live/Dead Viability/Cytotoxicity assay of cells with or without p62 aggregates; format: cell-based; settings: With ALLN; cells scored by GFP-p62 expression
Method: Cell Death Assay—Live and dead cells were identified with LIVE/DEAD Viability/Cytotoxicity Kit (Molecular Probes, Eugene, Oreg.) according to the manufacturer's instruction.
The role of aggregates and their relationship to cell survival are controversial. […] Viability of cells with p62 aggregates employing the Live/Dead Viability/Cytotoxicity assay was determined (Table 1).

HEK cells = assay: Cell survival by MTS reagent in p62-transfected HEK cells (FIG. 1D); format: cell-based, Human; settings: ALLN (50 μM) 30 h
Method: In FIG. 1D HEK cells (in a 24-well plate) were transfected with myc-tagged wild-type p62, p62ΔUBA, or p62ΔN-term along with HA-tagged ubiquitin constructs. After 24 h of transfection, the cells were treated with or without ALLN (50 μM) for 30 h. Cell survival was assessed by the addition of MTS reagent for 2 h. Values plotted in FIG. 1D are means±standard error of the means of four different experiments.

PC12 cells = assay: Cell survival assay (MTS) in NGF-treated PC12 cells (Table 4); format: cell-based; settings: PC12, NGF 50 ng/ml, MG132 25 μM, Aβ peptides 10 μM, 24 h, 100% without agent
Method: Cell Survival Assay—PC 2 cells were treated with 50 ng/ml NGF 24 h prior to addition of TRAF6 control or inhibitor peptide (75 μM). After 5 h, the cells were treated for an additional 24 h with or without MG132 (25 μM), Aβ peptide 42-1 or 1-42 (10 μM). Cell survival was measured by MTS assay.
All cells were treated with NGF (50 ng/ml), followed by addition of control or inhibitory TRAF6 peptide +/−Aβ peptide. Survival was measured by MTS assay.

[4] = test system: tau aggregates in PC12 cells; assay: Tau aggregate formation in NGF-treated PC12 cells (Table 3); format: cell-based; settings: PC12, NGF 50 ng/ml; MG132 25 μM, Aβ peptides 10 μM; 6% without agent
Method: PC12 cells were treated with NGF to induce tau polyubiquitination and treated or not with MG132 or Aβ and Aβ1-42, Aβ42-1. […] The relationship between aggregate formation and cell death was assessed (Tables, 3 & 4). Tau aggregate formation was observed upon treatment with MG1 32 or Aβ1-42 peptide. […] Furthermore, aggregate formation correlated with enhanced […] (Table 4).
All cells were treated with NGF (50 ng/ml), followed by addition of control or inhibitory TRAF6 peptide +/−Aβ peptide. Cells were stained for tau and 300 cells from two independent experiments were scored for the presence of tau aggregates or not.

T1 sequence (B5DF45 whole entry): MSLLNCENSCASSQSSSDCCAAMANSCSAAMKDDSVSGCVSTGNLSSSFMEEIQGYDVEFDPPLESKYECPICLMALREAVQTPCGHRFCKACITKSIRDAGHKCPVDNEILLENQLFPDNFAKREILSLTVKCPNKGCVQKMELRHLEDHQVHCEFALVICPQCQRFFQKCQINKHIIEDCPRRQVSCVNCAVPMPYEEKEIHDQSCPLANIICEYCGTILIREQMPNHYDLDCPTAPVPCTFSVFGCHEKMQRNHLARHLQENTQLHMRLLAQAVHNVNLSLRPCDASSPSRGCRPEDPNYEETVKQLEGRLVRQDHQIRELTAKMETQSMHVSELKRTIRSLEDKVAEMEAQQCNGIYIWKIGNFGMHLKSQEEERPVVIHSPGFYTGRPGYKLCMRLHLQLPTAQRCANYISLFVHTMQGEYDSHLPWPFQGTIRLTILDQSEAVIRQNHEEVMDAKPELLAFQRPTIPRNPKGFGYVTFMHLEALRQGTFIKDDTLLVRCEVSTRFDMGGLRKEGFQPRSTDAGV
T1 sequence (D3Z8W5 1-154 partner): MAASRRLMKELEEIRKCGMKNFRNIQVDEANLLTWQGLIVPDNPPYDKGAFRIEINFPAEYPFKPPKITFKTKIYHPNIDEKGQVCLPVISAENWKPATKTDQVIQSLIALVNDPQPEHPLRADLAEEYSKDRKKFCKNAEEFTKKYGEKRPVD

## AAVALLPAVLLALLAP-ESASGASADASVNFLK [control peptide]
[1]
  internalization of NGF: not
TrkA
  NGF-dependent ubiquitination of TrkA: no effect
Tau polyubiquitination
  NGF-induced tau polyubiquitination: not
[2]
  interaction of p62 with TRAF6: without effect

## COC(=O)Nc1nc2ccc(C(=O)c3cccs3)cc2[nH]1 [nocodazole]
[3]
  formation of the p62 aggregates (microtubule dependence): prevented their formation

## CCCC[C@@H](C=O)NC(=O)[C@H](CC(C)C)NC(=O)[C@H](CC(C)C)NC(C)=O [ALLN, N-acetyl-Leu-Leu-Norleu-AL] (Ac-Leu-Leu-[Nle]-aldehyde)
Ubiquitinated tau
  accumulation of ubiquitinated tau: accumulates
GFP-p62-expressing cells
  % of cells, With aggregates, Alive: 48%
  % of cells, With aggregates, Dead: 52%
  % of cells, Without aggregates, Alive: 38%
  % of cells, Without aggregates, Dead: 62%
HEK cells
  cell survival-promoting effects of p62: completely inhibited
[3]; HEK cells, ALLN (50 μM) 24 h, 6 to 8 microns without ALLN
  size of the aggregates: 12 to 14 microns
[3]; HEK cells, ALLN treatment
  GFP-p62-expressing cells accumulating large p62 aggregates: 100%
[3]; HEK cells, with versus without ALLN
  average number of aggregates per cell: essentially similar
[3]; HEK cells
  large p62 aggregates upon inhibition of proteasomal degradation: large aggregates of p62 which contained sequestered polyubiquitin were visible
[3]
  size of aggregates of cotransfected p62, ubiquitin, TRAF6, tau, UbcH7: increased in size

## CCN(CC)CCCC(C)Nc1ccnc2cc(Cl)ccc12 (centres unmarked) [chloroquine]
Ubiquitinated tau
  accumulation of ubiquitinated tau: not

## CC(C)C[C@@H](C=O)NC(=O)[C@H](CC(C)C)NC(=O)[C@H](CC(C)C)NC(=O)OCc1ccccc1 [MG132, Z-Leu-Leu-Leu-CHO] (Cbz-Leu-Leu-Leu-aldehyde)
PC12 cells
  cell survival, agent alone (Control, no TRAF6 peptide): 44.3%
Ubiquitinated tau
  accumulation of ubiquitinated tau: accumulates
[4]
  cells with tau aggregates, agent alone (Control, no TRAF6 peptide): 82%
[3]; HEK cells
  large p62 aggregates upon inhibition of proteasomal degradation: large aggregates of p62 which contained sequestered polyubiquitin were visible
[3]
  size of aggregates of cotransfected p62, ubiquitin, TRAF6, tau, UbcH7: increased in size

## CC[C@]1(O)C[C@@H]2CN(CCc3c([nH]c4ccccc34)[C@@](C(=O)OC)(c3cc4c(cc3OC)N(C)[C@H]3[C@@](O)(C(=O)OC)[C@H](OC(C)=O)[C@]5(CC)C=CCN6CC[C@]43[C@@H]65)C2)C1 [vinblastine]
[3]
  formation of the p62 aggregates (microtubule dependence): prevented their formation

## Aβ1-42: neurotoxic amyloid beta peptide
PC12 cells
  cell survival, agent alone (Control, no TRAF6 peptide): 45.7%
[4]
  cells with tau aggregates, agent alone (Control, no TRAF6 peptide): 72%
[3]; HEK cells transfected with GFP-p62 (FIG. 9D)
  formation of p62 aggregates by Aβ peptide: induced formation of p62 aggregates
